# Measurements published in patent US20160312309A1 (Millennium Pharmaceuticals, Inc., priority 2008, published 2016).
# Legend:
# [1] = test system: relapsed multiple myeloma; assay: CREST phase 2 trial (024); format: in vivo, human
# Text: (§1) Dexamethasone is a synthetic adrenocorticosteroid, CAS Registry No. 312-93-6, administered as tablets (DECADRON® Merck & Co., Inc.). 024: The CREST phase 2 trial (024) of either relapsed or refractory disease (subjects with first relapse, Jagannath et al. (2004) Br. J. Haematol. 127:165-172). […] 025: The SUMMIT phase 2 trial of patients with relapsed and refractory myeloma (subjects with second or greater relapse and refractory to their last prior therapy, Richardson P G, et al. (2003) N. Engl. J. Med. 348:2609-2617). […] Patients who received dexamethasone were treated for a maximum of 280 days by the following method: received up to four 5-week treatment cycles, followed by up to five 4-week treatment cycles. Within each 5-week treatment cycle, the patient received dexamethasone 40 mg/day PO, once daily on Days 1 to 4, 9 to 12, and 17 to 20 of a 35-day cycle. Within each 4-week treatment cycle, the patient received dexamethasone 40 mg/day PO once daily on Days 1 to 4 of a 28 day cycle. 040: Companion trial to 039 for patients who had more than 3 prior therapies. […] An additional 240 patients not from the −039 study, but who received at least 4 prior therapies also enrolled in this study.
# [2] = test system: relapsed and refractory myeloma; assay: SUMMIT phase 2 trial (025); format: in vivo, human; conditions: Study 025, bortezomib alone
# Text: as §1
# [3] = test system: relapsed or refractory multiple myeloma; assay: APEX phase 3 trial (039); format: in vivo, human; conditions: for Median duration of response / Median time to response / One-year survival / complete response / complete response plus near-complete response / complete response, number of patients: 039; for response rate (complete plus partial response (CR+PR)): 039, EBMT criteria; for CR + PR + MR, (%) / Complete Response, (%) / Minor Response, (%) / Near CR: IF+, (%) / No Change, (%) / Not Evaluable, (%) / Overall Response Rate (CR + PR), (%) / Partial Response, (%) / Progressive Disease, (%) / SWOG Remission, (%): best confirmed response, N = 627
# Text: as §1
# The following section presents more detailed information on the −039 trial. During the study, disease response was assessed according to the European Group for Blood and Marrow Transplant (EBMT) criteria as presented in Table 4.
# Response and date of disease progression was determined by computer algorithm that integrated data from a central laboratory and case report forms from each clinical site, according to the Blade criteria (Table 4). […] See Richardson et al., supra.
# Disease progression was determined by Blade criteria as described in Table 4 and above. […] The date of progression was determined by computer algorithm. P-value from log-rank test adjusted by actual randomization factors. See Richardson et al., supra.
# [4] = test system: relapsed multiple myeloma; assay: Response in pharmacogenomic portion of the studies; format: in vivo, human; conditions: for CR, number of patients / IE, number of patients / MR, number of patients / NC, number of patients / PD, number of patients / PR, number of patients: pharmacogenomic patients, study 039; for CR+PR rate / overall response rate: pharmacogenomic set of patients
# Text: Patient samples and response criteria from patients participating in these studies, as well as the following additional studies described below were sought for use in pharmacogenomic analyses to identify markers associated with patient survival. The samples were derived from the trials as described in Table 3 and in the following paragraphs.
# For those patients who participated in the pharmacogenomic portion of the study, Table 6 summarizes the response rates and Table 7 summarizes the patients evaluated for survival. […]
# myeloma cells = conditions: independent of their p53 status; cited from earlier work
# xenograft tumor models = conditions: variety of xenograft tumor models; cited from earlier work
# [5] = test system: nuclear factor-κB (NF-κB) activation; conditions: cited from earlier work
# [6] = test system: cells that over express B-cell lymphoma 2 (Bcl-2); conditions: cells that over express Bcl-2; cited from earlier work
# [7] = difference in rates, bortezomib vs dexamethasone
# [8] = difference in response rates, bortezomib vs dexamethasone
smiles,measurement,setting,value
"CC(C)C[C@H](NC(=O)[C@H](Cc1ccccc1)NC(=O)c1cnccn1)B(O)O [bortezomib, N (pyrazine)carbonyl-L-phenylalanine-L-leucine boronic acid]",complete response (CR)+partial response (PR) rate,"[1]; Study 024, bortezomib 1.0 mg/m^2",30%
same,complete response (CR)+partial response (PR) rate,"[1]; Study 024, bortezomib 1.3 mg/m^2",38%
same,CR+PR rate,[2],27%
same,overall response rate (CR+PR+minimal response (MR)),[2],35%
same,"CR+PR, number of patients",[2]; of 193 patients,53 patients
same,"overall response (CR+PR+MR), number of patients",[2]; of 193 patients,67 patients
same,Median duration of response,[3],8 months
same,Median time to response,[3],43 days
same,One-year survival,[3],80%
same,complete response,[3],6%
same,complete response plus near-complete response,[3],13%
same,"complete response, number of patients",[3],20 patients
same,response rate (complete plus partial response (CR+PR)),[3],38%
same,"CR + PR + MR, (%)",[3],(46) %
same,"Complete Response, (%)",[3],(6) %
same,"Minor Response, (%)",[3],(8) %
same,"Near CR: IF+, (%)",[3],(7) %
same,"No Change, (%)",[3],(43) %
same,"Not Evaluable, (%)",[3],(3) %
same,"Overall Response Rate (CR + PR), (%)",[3],(38) %
same,"Partial Response, (%)",[3],(32) %
same,"Progressive Disease, (%)",[3],(7) %
same,"SWOG Remission, (%)",[3],(15) %
same,"No Change, Difference",[3]; [7],−0.04
same,"Not Evaluable, Difference",[3]; [7],−0.01
same,"Progressive Disease, Difference",[3]; [7],−0.06
same,"CR + PR + MR, Difference",[3]; [8],0.12
same,"Complete Response, Difference",[3]; [8],0.06
same,"Minor Response, Difference",[3]; [8],−0.09
same,"Near CR: IF+, Difference",[3]; [8],0.06
same,"Overall Response Rate (CR + PR), Difference",[3]; [8],0.20
same,"Partial Response, Difference",[3]; [8],0.15
same,"SWOG Remission, Difference",[3]; [8],0.09
same,decrease in risk of death,"[3]; first year after enrollment, bortezomib group vs dexamethasone",41%
same,"CR, number of patients",[4],5
same,"IE, number of patients",[4],9
same,"MR, number of patients",[4],5
same,"NC, number of patients",[4],19
same,"PD, number of patients",[4],13
same,"PR, number of patients",[4],25
same,CR+PR rate,[4],32%
same,overall response rate,[4],42.3%
same,cytotoxicity to myeloma cells in culture,myeloma cells,directly cytotoxic
same,cytotoxic activity in xenograft tumor models,xenograft tumor models,cytotoxic activity
same,NF-κB activation,[5],inhibits
same,apoptosis,[6],induces apoptosis
"C[C@@H]1C[C@H]2[C@@H]3CCC4=CC(=O)C=C[C@]4(C)[C@@]3(F)[C@@H](O)C[C@]2(C)[C@@]1(O)C(=O)CO [dexamethasone, Dexamethasone]",Median duration of response,[3],5.6 months
same,Median time to response,[3],43 days
same,One-year survival,[3],66%
same,complete response,[3],< 1%
same,complete response plus near-complete response,[3],2%
same,"complete response, number of patients",[3],2 patients
same,response rate (complete plus partial response (CR+PR)),[3],18%
same,"CR + PR + MR, (%)",[3],(35) %
same,"Complete Response, (%)",[3],(<1) %
same,"Minor Response, (%)",[3],(17) %
same,"Near CR: IF+, (%)",[3],(<1) %
same,"No Change, (%)",[3],(48) %
same,"Not Evaluable, (%)",[3],(4) %
same,"Overall Response Rate (CR + PR), (%)",[3],(18) %
same,"Partial Response, (%)",[3],(17) %
same,"Progressive Disease, (%)",[3],(13) %
same,"SWOG Remission, (%)",[3],(5) %
same,"CR, number of patients",[4],1
same,"IE, number of patients",[4],6
same,"MR, number of patients",[4],11
same,"NC, number of patients",[4],16
same,"PD, number of patients",[4],22
same,"PR, number of patients",[4],13
same,CR+PR rate,[4],22.2%
same,overall response rate,[4],39.7%
